Experimental data published in paper PMC9687798, “Atypical Substrates of the Organic Cation Transporter 1” (Biomolecules, 2022).
“Also recorded” adds a separate entry of the source.

Legend:
[1] = no reference given; cited from earlier work
OCT1 = conditions: cited from earlier work
[2] = Concentration-dependent uptake into empty vector-transfected HEK293 cells; type: cell-based, human; conditions: human, empty vector (pcDNA5/FRT)-transfected HEK293 cells, pH 7.4; empty vector-transfected HEK cells; read-out: intrinsic clearance
Description: (§1) The transport experiments were performed using HEK293 cells that overexpress human OCT1*1 (wild-type), mutant human OCT1 D474N, variant human OCT1*2 (M420del) and OCT1*3 (R61C), wild-type human OCT2, and OCT3 after stable transfection. The wild-type cell lines of OCT1 and OCT2, as well as the variant cell lines OCT1*2 and *3, were generated using the Flp-In system (Thermo Fisher Scientific, Darmstadt, Germany) as described in previous publications. The cell line overexpressing OCT3 was a kind gift from Dr. Koepsell and Dr. Gorbulev (University of Würzburg, Germany). Cells transfected with the empty pcDNA5/FRT vector were used for the transport experiments as a control cell line. All cells were cultured approximately up to passage 30.
(§2) Forty-eight hours before the transport experiments, 600,000 cells were plated on 12-well plates pre-coated with poly-D-lysine and incubated at 37 °C with 5% CO2. The prepared 12-well plate with cells was positioned on a heating plate pre-warmed to 37 °C. After removing the medium, the cells were washed with 37 °C HBSS+ (10 mM HEPES in Hank’s balanced salt solution, pH 7.4). Then, one pre-defined concentration of a substrate was added to each well. The incubation period was stopped by adding 2 mL of 4 °C HBSS+ and removing the cells from the heating plate. The cells were washed twice with 4 °C HBSS+. For cell lysis, the cells were incubated for 15 min with 500 µL of 80% acetonitrile (LGC Standards, Wesel, Germany), which contained a respective internal standard (Table 1).
(§3) For time-dependent transport, the cells were incubated with 1 µM of the substance for 15 to 240 s to determine the linear uptake range ≥ 15 s. For concentration-dependent transport, the cells were incubated with defined substrate concentrations (0.1, 1, 10, 30, 100, 300, 600, 1000 µM) for the respective pre-defined incubation times. […]; 100 µM) and pre-defined incubation times. The uptake by a transporter was normalised to the uptake by empty vector-transfected cells. […] The results of transport experiments were normalized to the total protein concentration per well. Total protein quantification was performed using a bicinchoninic acid assay with bovine serum albumin as standard.
(§4) The ratios of cellular uptake were calculated by dividing the total uptake of transporter-overexpressing cells by the total uptake into empty vector transfected cells. The concentration-dependent cellular net uptake was used for analysis of transport kinetics by subtracting for each substrate concentration the uptake of empty vector-transfected cells from the uptake of transporter-overexpressing cells. The transport kinetic parameters Vmax and KM were determined with non-linear regression by using the Michaelis–Menten equation for net uptake data and by using the Michaelis–Menten equation extended with a linear term for total uptake data (GraphPad Prism 5.01, GraphPad software, LA Jolla, CA, USA). The intrinsic clearance Clint was expressed with the ratio of Vmax and KM.

[3] = tested on: empty vector-transfected HEK cells; assay: as above; type: cell-based, human; conditions: uptake into empty vector-transfected cells
Description: as §1, §2, §3, §4

mutant human OCT1 D474N = biological target: T1, mutant human OCT1 D474N (Homo sapiens, UniProt O15245, D474N); assay: Cellular uptake by HEK293 cells overexpressing variant OCT1 D474N; type: cell-based; conditions: 1, 10 and 100 µM, 120 s
T1 construct: expressed in transfected cells
T1 sequence (O15245 1-554 D474N): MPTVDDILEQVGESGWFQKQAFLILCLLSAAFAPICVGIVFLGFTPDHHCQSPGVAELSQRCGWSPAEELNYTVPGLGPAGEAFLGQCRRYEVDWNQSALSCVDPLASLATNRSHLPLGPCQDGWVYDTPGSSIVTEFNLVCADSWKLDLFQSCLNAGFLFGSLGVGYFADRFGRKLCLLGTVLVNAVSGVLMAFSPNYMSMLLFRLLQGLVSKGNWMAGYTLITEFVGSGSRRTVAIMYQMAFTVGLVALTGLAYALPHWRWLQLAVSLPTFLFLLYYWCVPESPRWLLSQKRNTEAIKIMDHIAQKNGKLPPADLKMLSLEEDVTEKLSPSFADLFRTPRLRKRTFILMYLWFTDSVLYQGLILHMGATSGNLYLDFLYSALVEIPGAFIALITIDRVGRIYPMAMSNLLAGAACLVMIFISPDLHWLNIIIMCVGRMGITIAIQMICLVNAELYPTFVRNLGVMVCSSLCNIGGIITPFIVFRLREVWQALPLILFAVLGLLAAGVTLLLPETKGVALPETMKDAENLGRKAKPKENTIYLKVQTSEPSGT

OCT1 wild-type = biological target: T2, OCT1 wild-type (Homo sapiens, UniProt O15245); assay: Inhibition of OCT1-mediated prostaglandin uptake by MPP+; type: cell-based; conditions: 1 mM inhibitor, 100 µM prostaglandin
T2 construct: expressed in transfected cells
Description: as §2
Figure 8 Cellular uptake of prostaglandins by OCT1. Cellular uptake ratios were determined in HEK293 cells that were transfected stably with OCT1 or its variants that were incubated with 1 µM (light blue), 10 µM (medium blue), and 100 µM (dark blue) of prostaglandin E2 and F2α for 120 s. […] Statistical significance of the uptake ratio between OCT1 and its variants and between inhibited and not inhibited OCT1 was determined using an unpaired students t-test with * p < 0.05, ** p < 0.01, and *** p < 0.001.

OCT1 (wild-type, OCT1*1) = OCT1 (wild-type, OCT1*1) (Homo sapiens, UniProt O15245); assay: Concentration-dependent uptake (transport kinetics) in HEK293 cells overexpressing OCT1 wild-type; conditions: human, HEK293 cells stably overexpressing human OCT1*1 (wild-type), pH 7.4, KM (±SEM), net uptake (OCT1 minus empty vector), HEK293, 0.1-1000 µM substrate, Michaelis–Menten

**Q.** For `COc1cc(Cc2cnc(N)nc2N)cc(OC)c1OC` [Trimethoprim, trimethoprim], which “fraction eliminated via the kidneys” value [1] is on record?
**A.** about 75%

**Q.** Which Km (OCT1) does the source give for `N=C(N)c1ccc(OCCCCCOc2ccc(C(=N)N)cc2)cc1` [Pentamidine, pentamidine] here?
**A.** 36.4 µM

**Q.** And the intrinsic clearance (OCT1)?
**A.** 4.3 µL/mg protein/min

**Q.** Which results are given for `N[C@@H](Cc1ccc(O)c(O)c1)C(=O)O` [Levodopa, levodopa]?
**A.** microsomal CLint [2]: 54.4 µL/min/mg; Km [3]: 380 µM; Vmax [3]: 20,681 pmol/mg protein/min

**Q.** What does the source list for `CCCCC[C@H](O)/C=C/[C@@H]1[C@@H](C/C=C\CCCC(=O)O)[C@@H](O)C[C@H]1O` [Prostaglandin F2α, prostaglandin F2α]?
**A.** uptake of prostaglandins by OCT1 D474N in comparison to wild-type (mutant human OCT1 D474N): reduced to the level of the control cell line; uptake by OCT1 wild-type with the inhibitor MPP+ (OCT1 wild-type): not statistically significant; Km (OCT1 (wild-type, OCT1*1)): 719 µM

**Q.** Which “uptake of prostaglandins by OCT1 D474N in comparison to wild-type” value (mutant human OCT1 D474N) does the source give for `CCCCC[C@H](O)/C=C/[C@H]1[C@H](O)CC(=O)[C@@H]1C/C=C\CCCC(=O)O` [Prostaglandin E2, prostaglandin E2] here?
**A.** reduced to the level of the control cell line; also recorded: almost abolished

**Q.** What about the “uptake by OCT1 wild-type with the inhibitor MPP+” value (OCT1 wild-type) of the same compound?
**A.** statistically significantly reduced uptake
